Results reported in US11306081B2, “Phenylacetamides as inhibitors of rock” (BRISTOL-MYERS SQUIBB COMPANY, priority 2017, dated 2022).

Molecular target: ROCK2 (Homo sapiens (Human), UniProt O75116)
Assay: ROCK assay (LABCHIP 3000 peptide phosphorylation assay)
Format: biochemical
Details: 5 μM ATP, 1.5 μM peptide substrate, dose-response
Outline: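 Rho kinase variants in 20 mM HEPES pH 7.5, 20 mM MgCl2, 0.015% Brij-35, 4 mM DTT, 5 μM ATP, 1.5 μM FITC-AHA-AKRRRLSSLRA-OH peptide; DMSO <2%. EDTA-stopped; phosphorylated/non-phosphorylated peptide separated by microfluidic LabChip readout. Dose-response inhibition curve-fitted to give IC50.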

Sequence of ROCK2 (O75116 whole entry, species assumed): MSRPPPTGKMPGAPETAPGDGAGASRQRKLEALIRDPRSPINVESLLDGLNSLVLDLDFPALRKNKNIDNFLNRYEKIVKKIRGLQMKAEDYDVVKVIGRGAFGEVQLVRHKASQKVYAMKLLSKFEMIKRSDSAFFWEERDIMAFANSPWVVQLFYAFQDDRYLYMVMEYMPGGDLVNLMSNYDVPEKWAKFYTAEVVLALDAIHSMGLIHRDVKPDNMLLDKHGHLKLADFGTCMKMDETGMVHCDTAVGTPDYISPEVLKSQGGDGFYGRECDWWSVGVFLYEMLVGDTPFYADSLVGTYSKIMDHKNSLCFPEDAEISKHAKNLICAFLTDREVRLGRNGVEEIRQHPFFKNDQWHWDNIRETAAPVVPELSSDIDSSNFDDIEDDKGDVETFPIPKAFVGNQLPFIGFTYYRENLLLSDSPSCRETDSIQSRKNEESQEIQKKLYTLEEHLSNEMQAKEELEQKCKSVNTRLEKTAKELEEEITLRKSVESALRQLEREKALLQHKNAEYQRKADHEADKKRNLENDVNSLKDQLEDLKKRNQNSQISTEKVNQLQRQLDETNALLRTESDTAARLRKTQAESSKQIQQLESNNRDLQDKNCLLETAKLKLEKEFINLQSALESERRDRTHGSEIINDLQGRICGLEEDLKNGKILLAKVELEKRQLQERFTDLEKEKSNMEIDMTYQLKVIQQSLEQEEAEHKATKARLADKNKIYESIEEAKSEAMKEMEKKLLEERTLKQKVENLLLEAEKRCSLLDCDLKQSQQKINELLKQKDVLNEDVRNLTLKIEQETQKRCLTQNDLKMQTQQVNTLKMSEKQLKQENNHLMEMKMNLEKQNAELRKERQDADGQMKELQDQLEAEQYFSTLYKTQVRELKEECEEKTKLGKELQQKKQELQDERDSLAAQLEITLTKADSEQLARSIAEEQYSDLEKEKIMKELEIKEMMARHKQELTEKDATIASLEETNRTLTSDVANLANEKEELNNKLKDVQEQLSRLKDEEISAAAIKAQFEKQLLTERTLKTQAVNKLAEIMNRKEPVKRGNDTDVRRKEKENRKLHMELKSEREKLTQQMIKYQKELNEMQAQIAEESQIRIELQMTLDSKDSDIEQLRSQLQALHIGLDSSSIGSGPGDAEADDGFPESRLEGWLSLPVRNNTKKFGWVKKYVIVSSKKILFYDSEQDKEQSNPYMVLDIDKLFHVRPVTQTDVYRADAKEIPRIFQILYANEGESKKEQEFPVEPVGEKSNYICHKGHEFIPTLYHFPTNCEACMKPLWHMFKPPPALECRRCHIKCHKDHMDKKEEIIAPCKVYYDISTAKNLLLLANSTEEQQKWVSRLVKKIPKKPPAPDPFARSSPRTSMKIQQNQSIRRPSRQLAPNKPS

| Compound | IC50 |
| --- | --- |
| CP(C)(=O)c1ccc2nc(NC(=O)Cc3ccc(Oc4ncccc4C(N)=O)c(F)c3)n(CC3CC3)c2c1 [Example 145, 2-(4-(2-((1-(cyclopropylmethyl)-6-(dimethylphosphoryl)-1H-benzo[d]imidazol-2-yl)amino)-2-oxoethyl)-2-fluorophenoxy)nicotinamide] | 133 nM |
| CP(C)(=O)c1ccc2sc(NC(=O)Cc3ccc(Oc4ncccc4C(N)=O)c(F)c3)nc2c1 [Example 146] | 132 nM |
| CP(C)(=O)c1cccc2nc(NC(=O)Cc3ccc(Oc4ncccc4C(N)=O)c(F)c3)nn12 [Example 147] | 1390 nM |
| CP(C)(=O)c1ccc2c(c1)nc(NC(=O)Cc1ccc(Oc3ncccc3C(N)=O)c(F)c1)n2CC(F)(F)F [Example 148, 2-(4-(2-((5-(dimethyl-phosphoryl)-1-(2,2,2-trifluoroethyl)-1H-benzo[d]imidazol-2-yl)amino)-2-oxoethyl)-2-fluorophenoxy)-nicotinamide] | 147 nM |
| CP(C)(=O)c1ccc2nc(NC(=O)Cc3ccc(Oc4ncccc4C(N)=O)c(F)c3)cn2c1 [Example 149, 2-(4-(2-((6-(dimethyl-phosphoryl)imidazo-[1,2-a]pyridin-2-yl)-amino)-2-oxoethyl)-2-fluorophenoxy)-nicotinamide] | 1230 nM |
| CP(C)(=O)c1ccc2nc(NC(=O)Cc3ccc(Oc4ncccc4C(N)=O)c(F)c3)n(CC(F)F)c2c1 [Example 150, 2-(4-(2-((1-(2,2-difluoroethyl)-6-(dimethylphosphoryl)-1H-benzo[d]imidazol-2-yl)amino)-2-oxo-ethyl)-2-fluoro-phenoxy)nicotinamide] | 465 nM |
| Cc1cccc(-c2nc(NC(=O)Cc3ccc(Oc4ncccc4C(N)=O)c(F)c3)sc2C)n1 [Example 151, 2-(2-fluoro-4-(2-((5-methyl-4-(6-methylpyridin-2-yl)thiazol-2-yl)amino)-2-oxoethyl)phenoxy)nicotinamide] | 44 nM |
| NC(=O)c1cccnc1Oc1ccc(CC(=O)Nc2nc3ccccc3n2CC2CCC2)cc1F [Example 152, 2-(4-(2-((1-(cyclobutylmethyl)-1H-benzo[d]imidazol-2-yl)amino)-2-oxoethyl)-2-fluorophenoxy)nicotinamide] | 55 nM |
| CC(C)n1c(NC(=O)Cc2ccc(Oc3ncccc3C(N)=O)c(F)c2)nc2ccccc21 [Example 153, 2-(2-fluoro-4-(2-((1-isopropyl-1H-benzo[d]imidazol-2-yl)amino)-2-oxoethyl)-phenoxy)nicotinamide] | 218 nM |
| NC(=O)c1cccnc1Oc1ccc(CC(=O)Nc2nc3ccccc3n2CCC(F)(F)F)cc1F [Example 154, 2-(2-fluoro-4-(2-oxo-2-((1-(3,3,3-trifluoropropyl)-1H-benzo[d]-imidazol-2-yl)-amino)ethyl)-phenoxy)nicotin-amide] | 42 nM |
| COCCn1c(NC(=O)Cc2ccc(Oc3ncccc3C(N)=O)c(F)c2)nc2ccccc21 [Example 155, 2-(2-fluoro-4-(2-((1-(2-methoxyethyl)-1H-benzo[d]-imidazol-2-yl)-amino)-2-oxo-ethyl)phenoxy)-nicotinamide] | 1930 nM |
| COCCn1c(NC(=O)Cc2ccc(Oc3ncccc3C(N)=O)c(F)c2)nc2cc(C(N)=O)ccc21 [Example 156, 2-(2-(4-((3-carbamoyl-pyridin-2-yl)oxy)-3-fluorophenyl)-acetamido)-1-(2-methoxyethyl)-1H-benzo[d]-imidazole-5-carboxamide] | 3460 nM |
| COCCn1c(NC(=O)Cc2ccc(Oc3ncccc3C(N)=O)c(F)c2)nc2ccc(OC)cc21 [Example 157, 2-(2-fluoro-4-(2-((6-methoxy-1-(2-methoxyethyl)-1H-benzo[d]-imidazol-2-yl)-amino)-2-oxo-ethyl)phenoxy)-nicotinamide] | 804 nM |
| COCCn1c(NC(=O)Cc2ccc(Oc3ncccc3C(N)=O)c(F)c2)nc2ccc(C(N)=O)cc21 [Example 158, 2-(2-(4-((3-carbamoyl-pyridin-2-yl)oxy)-3-fluorophenyl)-acetamido)-1-(2-methoxyethyl)-1H-benzo[d]-imidazole-6-carboxamide] | 1720 nM |
| NC(=O)c1cccnc1Oc1ccc(CC(=O)Nc2nc3ccccc3n2CC2CCOCC2)cc1F [Example 159, 2-(2-fluoro-4-(2-oxo-2-((1-((tetra-hydro-2H-pyran-4-yl)methyl)-1H-benzo[d]imidazol-2-yl)amino)ethyl)-phenoxy)nicotin-amide] | 2180 nM |
| COc1ccc2c(c1)nc(NC(=O)Cc1ccc(Oc3ncccc3C(N)=O)c(F)c1)n2CC1CC1 [Example 162, 2-(4-(2-((1-(cyclopropyl-methyl)-5-methoxy-1H-benzo[d]-imidazol-2-yl)-amino)-2-oxoethyl)-2-fluorophenoxy)-nicotinamide] | 47 nM |

Stronger by IC50, values ahead:

| IC50 | Compound |
| --- | --- |
| 39 nM | COc1ccc2nc(NC(=O)Cc3ccc(Oc4ncccc4C(N)=O)c(F)c3)n(CC3CC3)c2c1 [Example 160, 2-(4-(2-((1-(cyclopropyl-methyl)-6-methoxy-1H-benzo[d]-imidazol-2-yl)-amino)-2-oxoethyl)-2-fluorophenoxy)-nicotinamide] |
| 26 nM | NC(=O)c1cccnc1Oc1ccc(CC(=O)Nc2nc3cc(F)ccc3n2CC2CC2)cc1F [Example 165] |
| 25 nM | NC(=O)c1cccnc1Oc1ccc(CC(=O)Nc2nc3ccccc3n2CC2CC2)cc1F [Example 167, 2-(4-(2-((1-(cyclo-propylmethyl)-1H-benzo[d]-imidazol-2-yl)-amino)-2-oxo-ethyl)-2-fluoro-phenoxy)nicotin-amide] |
| 24 nM | NC(=O)c1cccnc1Oc1ccc(CC(=O)Nc2nc3ccc(F)cc3n2CC(F)F)cc1F [Example 166, 2-(4-(2-((1-(2,2-difluoroethyl)-6-fluoro-1H-benzo[d]-imidazol-2-yl)-amino)-2-oxo-ethyl)-2-fluoro-phenoxy)nicotin-amide] |
| 18 nM | NC(=O)c1cccnc1Oc1ccc(CC(=O)Nc2nc3ccc(F)cc3n2CC2CC2)cc1F [Example 168, 2-(4-(2-((1-(cyclopropyl-methyl)-6-fluoro-1H-benzo[d]-imidazol-2-yl)-amino)-2-oxo-ethyl)-2-fluoro-phenoxy)nicotin-amide] |
| 16 nM | NC(=O)c1cccnc1Oc1ccc(CC(=O)Nc2nc3c(F)cccc3n2CC2CC2)cc1F [Example 161, 2-(4-(2-((1-(cyclopropyl-methyl)-4-fluoro-1H-benzo[d]-imidazol-2-yl)-amino)-2-oxoethyl)-2-fluorophenoxy)-nicotinamide] |
| 16 nM | COc1cccc2c1nc(NC(=O)Cc1ccc(Oc3ncccc3C(N)=O)c(F)c1)n2CC1CC1 [Example 163, 2-(4-(2-((1-(cyclo-propylmethyl)-4-methoxy-1H-benzo[d]imidazol-2-yl)amino)-2-oxoethyl)-2-fluorophenoxy)-nicotinamide] |
| 12 nM | NC(=O)c1cccnc1Oc1ccc(CC(=O)Nc2nc3cccc(F)c3n2CC2CC2)cc1F [Example 164, 2-(4-(2-((1-(cyclopropyl-methyl)-7-fluoro-1H-benzo[d]-imidazol-2-yl)-amino)-2-oxo-ethyl)-2-fluoro-phenoxy)nicotin-amide] |
| 5 nM | Cn1cc(-c2ccc3nc(NC(=O)Cc4ccc(Oc5ncccc5C(N)=O)c(F)c4)n(CC4CC4)c3c2)cn1 [Example 144, 2-(4-(2-((1-(cyclopropylmethyl)-6-(1-methyl-1H-pyrazol-4-yl)-1H-benzo[d]imidazol-2-yl)amino)-2-oxoethyl)-2-fluorophenoxy)nicotinamide] |
